Source: PMC4009859, “Novel Cold-Adapted Esterase MHlip from an Antarctic Soil Metagenome” (Biology, 2013)

Molecular target: T1, MHlip (uncultured bacterium, UniProt D3YKV3)
T1 construct: full length, 262 residues, 28,075 Da (theoretical), C-terminal 6xHis tag (pET22b NdeI/XhoI), E. coli BL21(DE3), Ni-NTA; N-terminus MPFAH
Assay: spectrophotometric p-nitrophenol release at […] nm, initial rates, nonlinear Michaelis-Menten fit
Format: biochemical
Settings: 20 mM Tris-HCl pH 8, 30 °C, pNPA 0-10 mM

T1 sequence (D3YKV3 1-262 limits assumed): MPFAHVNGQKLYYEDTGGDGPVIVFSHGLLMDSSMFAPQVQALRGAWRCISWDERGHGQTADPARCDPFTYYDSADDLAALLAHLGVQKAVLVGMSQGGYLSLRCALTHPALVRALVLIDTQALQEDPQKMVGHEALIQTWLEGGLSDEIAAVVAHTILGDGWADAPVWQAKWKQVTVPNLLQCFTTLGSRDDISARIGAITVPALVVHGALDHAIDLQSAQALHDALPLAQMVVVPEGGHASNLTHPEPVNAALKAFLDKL

CC(=O)Oc1ccc([N+](=O)[O-])cc1 [pNPA]
Km: 1.2~0.1 mM
